# From patent US12016355B2, “Stevia composition” (PURECIRCLE SDN BHD, priority 2011, dated 2024)
# Assays:
# [1] = as usually found, literature; cited from earlier work
# [2] = Sweetness factor (SF) determination by trained panel in water; conditions: in water, 5% SE
# Experimental: The sweetness factors for different sweetener from all major groups were measured by tasting several concentrations of each sweetener in water by trained panel. From the sensory test at a, the concentration (%) that corresponds to the 5% sucrose equivalent (SE) sweetness were estimated and listed in Table 2. The sweetness equivalent (SE) of high intensity sweeteners (HIS) varies according to the target sugar equivalent sweetness levels, that are tested as shown in Table 3.
# [3] = Sugar equivalent sweetness of sweetener/Reb B combinations in plain water, trained panel; conditions: plain water
# Experimental: In one embodiment, Reb B was combined (at 50, 150 and 300 ppm) with several sweeteners listed in Table 2 to make solutions in plain water. Some of the sweeteners were tested at two different concentrations to obtain around 2% sugar equivalent sweetness without any Reb B. A trained panel conducted sensory tests to determine the effect of the addition of different amounts of Reb B to each sweetener on overall sweetness quality and intensity as shown in Table 4.
structure (smiles),measurement,setting,value
C=C1C[C@@]23CC[C@H]4[C@@](C)(CCC[C@@]4(C)C(=O)O[C@@H]4O[C@H](CO)[C@@H](O)[C@H](O)[C@H]4O)[C@@H]2CC[C@]1(O[C@@H]1O[C@H](CO)[C@@H](O)[C@H](O[C@@H]2O[C@H](CO)[C@@H](O)[C@H](O)[C@H]2O)[C@H]1O[C@@H]1O[C@@H](C)[C@H](O)[C@@H](O)[C@H]1O)C3 [Rebaudioside C],times sweeter than sucrose,[1],40-60 times
OC[C@H]1O[C@@](CO)(O[C@H]2O[C@H](CO)[C@@H](O)[C@H](O)[C@H]2O)[C@@H](O)[C@@H]1O [Sugar],Calculated SF (sweetness factor),[2],1
same,"Usage Level, % (concentration corresponding to 5% sucrose equivalent sweetness)",[2],5%
OC[C@@H](O)[C@@H](O)CO [Erythritol],Calculated SF (sweetness factor),[2],0.67
same,"Usage Level, % (concentration corresponding to 5% sucrose equivalent sweetness)",[2],7.49%
same,Sugar equivalent sweetness (SE) of Sweetener/Reb B combination,"[3]; 0 ppm Reb B, listed as Erythritol (3.5%)",1-1.5%
same,Sugar equivalent sweetness (SE) of Sweetener/Reb B combination,"[3]; 0 ppm Reb B, listed as Erythritol (5.0%)",3%
same,Sugar equivalent sweetness (SE) of Sweetener/Reb B combination,"[3]; 50 ppm Reb B, listed as Erythritol (3.5%)",3%
same,Sugar equivalent sweetness (SE) of Sweetener/Reb B combination,"[3]; 50 ppm Reb B, listed as Erythritol (5.0%)",4%
same,Sugar equivalent sweetness (SE) of Sweetener/Reb B combination,"[3]; 150 ppm Reb B, listed as Erythritol (3.5%)",5.5-6%
same,Sugar equivalent sweetness (SE) of Sweetener/Reb B combination,"[3]; 150 ppm Reb B, listed as Erythritol (5.0%)",8%
same,Sugar equivalent sweetness (SE) of Sweetener/Reb B combination,"[3]; 300 ppm Reb B, listed as Erythritol (3.5%)",9%
same,Sugar equivalent sweetness (SE) of Sweetener/Reb B combination,"[3]; 300 ppm Reb B, listed as Erythritol (5.0%)",9.5%
C=C1C[C@@]23CC[C@H]4[C@@](C)(CCC[C@@]4(C)C(=O)O[C@@H]4O[C@H](CO)[C@@H](O)[C@H](O)[C@H]4O)[C@@H]2CC[C@]1(O[C@@H]1O[C@H](CO)[C@@H](O)[C@H](O)[C@H]1O[C@@H]1O[C@@H](C)[C@H](O)[C@@H](O)[C@H]1O)C3 [Dulcoside A],times sweeter than sucrose,[1],30 times
OC[C@H]1O[C@H](O[C@]2(CCl)O[C@H](CCl)[C@@H](O)[C@@H]2O)[C@H](O)[C@@H](O)[C@H]1Cl [Sucralose],Calculated SF (sweetness factor),[2],602
same,"Usage Level, % (concentration corresponding to 5% sucrose equivalent sweetness)",[2],0.0083%
same,Sugar equivalent sweetness (SE) of Sweetener/Reb B combination,"[3]; 0 ppm Reb B, listed as Sucralose 83 ppm",5%
same,Sugar equivalent sweetness (SE) of Sweetener/Reb B combination,"[3]; 0 ppm Reb B, listed as Sucralose (40 ppm)",2-2.5%
same,Sugar equivalent sweetness (SE) of Sweetener/Reb B combination,"[3]; 50 ppm Reb B, listed as Sucralose 83 ppm",7%
same,Sugar equivalent sweetness (SE) of Sweetener/Reb B combination,"[3]; 50 ppm Reb B, listed as Sucralose (40 ppm)",5%
same,Sugar equivalent sweetness (SE) of Sweetener/Reb B combination,"[3]; 150 ppm Reb B, listed as Sucralose 83 ppm",11%
same,Sugar equivalent sweetness (SE) of Sweetener/Reb B combination,"[3]; 150 ppm Reb B, listed as Sucralose (40 ppm)",7.5-8%
same,Sugar equivalent sweetness (SE) of Sweetener/Reb B combination,"[3]; 300 ppm Reb B, listed as Sucralose 83 ppm",14%
same,Sugar equivalent sweetness (SE) of Sweetener/Reb B combination,"[3]; 300 ppm Reb B, listed as Sucralose (40 ppm)",11%
"C[C@H](CC[C@@H](O[C@@H]1O[C@H](CO[C@@H]2O[C@H](CO)[C@@H](O)[C@H](O)[C@H]2O)[C@@H](O)[C@H](O)[C@H]1O[C@@H]1O[C@H](CO)[C@@H](O)[C@H](O)[C@H]1O)C(C)(C)O)[C@H]1CC[C@@]2(C)[C@@H]3CC=C4[C@@H](CC[C@H](O[C@@H]5O[C@H](CO[C@@H]6O[C@H](CO)[C@@H](O)[C@H](O)[C@H]6O)[C@@H](O)[C@H](O)[C@H]5O)C4(C)C)[C@]3(C)[C@H](O)C[C@]12C [Mogroside V (70%), Mogroside V]",Calculated SF (sweetness factor),[2],236
same,"Usage Level, % (concentration corresponding to 5% sucrose equivalent sweetness)",[2],0.0212%
same,Sugar equivalent sweetness (SE) of Sweetener/Reb B combination,"[3]; 0 ppm Reb B, listed as Mogroside V (100 ppm)",2.5%
same,Sugar equivalent sweetness (SE) of Sweetener/Reb B combination,"[3]; 0 ppm Reb B, listed as Mogroside V (212 ppm)",5.5-6%
same,Sugar equivalent sweetness (SE) of Sweetener/Reb B combination,"[3]; 50 ppm Reb B, listed as Mogroside V (100 ppm)",4%
same,Sugar equivalent sweetness (SE) of Sweetener/Reb B combination,"[3]; 50 ppm Reb B, listed as Mogroside V (212 ppm)",7%
same,Sugar equivalent sweetness (SE) of Sweetener/Reb B combination,"[3]; 150 ppm Reb B, listed as Mogroside V (100 ppm)",5.5%
same,Sugar equivalent sweetness (SE) of Sweetener/Reb B combination,"[3]; 150 ppm Reb B, listed as Mogroside V (212 ppm)",9%
same,Sugar equivalent sweetness (SE) of Sweetener/Reb B combination,"[3]; 300 ppm Reb B, listed as Mogroside V (100 ppm)",8-8.5%
same,Sugar equivalent sweetness (SE) of Sweetener/Reb B combination,"[3]; 300 ppm Reb B, listed as Mogroside V (212 ppm)",10-10.5%
OC[C@@H](O)[C@@H](O[C@H]1O[C@H](CO)[C@@H](O)[C@H](O)[C@H]1O)[C@H](O)[C@@H](O)CO [Maltitol],Calculated SF (sweetness factor),[2],0.77
same,"Usage Level, % (concentration corresponding to 5% sucrose equivalent sweetness)",[2],6.44%
same,Sugar equivalent sweetness (SE) of Sweetener/Reb B combination,[3]; 0 ppm Reb B,5%
same,Sugar equivalent sweetness (SE) of Sweetener/Reb B combination,[3]; 50 ppm Reb B,6%
same,Sugar equivalent sweetness (SE) of Sweetener/Reb B combination,[3]; 150 ppm Reb B,9%
same,Sugar equivalent sweetness (SE) of Sweetener/Reb B combination,[3]; 300 ppm Reb B,12%
